Measured values from ChEMBL document CHEMBL1142743, “8-Piperazinyl-2,3-dihydropyrrolo[3,2-g]isoquinolines: potent, selective, orally bioavailable 5-HT1 receptor ligands” (Bioorg Med Chem Lett, 2005).
Activity calls are given as the source filed them. The calls are words filed in the database; no cut-off is given here.

How the values were obtained:
[1] = target: 5-hydroxytryptamine receptor 1D (Homo sapiens, UniProt P28221); assay: Mean binding affinity towards 5-hydroxytryptamine 1D receptor using [3H]5-HT or [3H]-8-OH-DPAT as the radioligand
[2] = target: T1, 5-hydroxytryptamine receptor 1A (Homo sapiens, UniProt P08908); assay: Mean binding affinity towards 5-hydroxytryptamine 1A receptor using [3H]-5-HT or [3H]8-OH-DPAT as the radioligand
T1 sequence (P08908 whole entry): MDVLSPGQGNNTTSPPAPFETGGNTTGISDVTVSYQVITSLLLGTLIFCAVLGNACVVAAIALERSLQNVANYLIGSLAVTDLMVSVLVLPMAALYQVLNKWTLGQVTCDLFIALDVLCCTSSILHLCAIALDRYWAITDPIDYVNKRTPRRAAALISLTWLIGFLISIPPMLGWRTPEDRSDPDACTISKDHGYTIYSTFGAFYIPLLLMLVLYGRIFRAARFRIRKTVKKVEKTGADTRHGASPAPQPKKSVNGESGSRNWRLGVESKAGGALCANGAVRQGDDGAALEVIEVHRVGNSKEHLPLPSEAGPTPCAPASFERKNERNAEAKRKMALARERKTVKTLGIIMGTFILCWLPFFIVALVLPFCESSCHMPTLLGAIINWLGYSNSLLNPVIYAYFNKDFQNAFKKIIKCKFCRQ

[3] = target: T2, 5-hydroxytryptamine receptor 1B (Homo sapiens, UniProt P28222); assay: Mean binding affinity towards 5-hydroxytryptamine 1B receptor using [3H]5-HT or [3H]-8-OH-DPAT as the radioligand
[4] = Brain/blood concentration after administration in rat; assay type: ADME, tissue-based; settings: read-out: Brain/Blood concentration
[5] = target: T3, 5-hydroxytryptamine receptor 1A (Homo sapiens) (UniProt P08908); assay: Partial agonist efficacy in the 5-HT1A GTPgammaS functional assay; Expressed as fraction of 5-HT efficacy
T3 sequence (whole entry): T1 sequence (P08908 whole entry)

[6] = Oral bioavailability in rat; assay type: ADME, organism-based; settings: in vivo
[7] = target: T2, 5-hydroxytryptamine receptor 1B; assay: Partial agonist efficacy in the 5-HT1B GTPgammaS functional assay; Expressed as fraction of 5-HT efficacy
[8] = In vivo clearance after administration in rat; assay type: ADME, organism-based; settings: blood, read-out: CLb
[9] = target: T3, 5-hydroxytryptamine receptor 1A (Homo sapiens); assay: Partial agonist efficacy in the 5-HT1A GTPgammaS functional assay; Expressed as fraction of 5-HT efficacy; Inactive

T2 sequence (P28222 whole entry): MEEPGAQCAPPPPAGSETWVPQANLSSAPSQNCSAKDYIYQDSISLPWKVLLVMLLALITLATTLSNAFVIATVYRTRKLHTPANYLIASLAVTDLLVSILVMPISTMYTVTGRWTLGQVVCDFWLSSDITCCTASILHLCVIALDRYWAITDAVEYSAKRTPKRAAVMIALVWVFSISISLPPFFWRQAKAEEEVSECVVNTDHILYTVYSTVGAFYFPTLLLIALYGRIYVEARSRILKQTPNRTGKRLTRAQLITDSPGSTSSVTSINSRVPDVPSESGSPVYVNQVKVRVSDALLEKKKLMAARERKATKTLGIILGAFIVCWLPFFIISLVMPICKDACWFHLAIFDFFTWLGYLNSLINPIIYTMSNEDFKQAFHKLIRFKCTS
Sequence of 5-hydroxytryptamine receptor 1D (P28221 whole entry): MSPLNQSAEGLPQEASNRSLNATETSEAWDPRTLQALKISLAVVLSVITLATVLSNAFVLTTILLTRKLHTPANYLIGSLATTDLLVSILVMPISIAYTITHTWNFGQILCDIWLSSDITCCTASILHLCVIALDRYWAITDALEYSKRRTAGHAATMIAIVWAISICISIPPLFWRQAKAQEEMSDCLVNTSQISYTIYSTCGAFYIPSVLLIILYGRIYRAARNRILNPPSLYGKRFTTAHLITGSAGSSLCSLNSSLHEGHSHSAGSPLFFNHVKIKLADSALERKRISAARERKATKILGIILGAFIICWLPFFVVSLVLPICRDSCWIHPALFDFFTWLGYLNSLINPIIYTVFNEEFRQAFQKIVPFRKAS

| SMILES | Ki [1] [nM] | Ki [2] [nM] | Ki [3] [nM] | Kp [4] | Efficacy [5] | bioavailability [6] [%] | Efficacy [7] | clearance [8] [mL/min/kg] | Efficacy [9] |
| --- | --- | --- | --- | --- | --- | --- | --- | --- | --- |
| CCc1c(C(=O)N2CCc3cc4ccnc(N5CCN(CC)CC5)c4cc32)cnn1-c1ccc(C#N)cc1 | 2.51 | 3.16 | 1.58 |  |  |  |  |  |  |
| CCc1c(C(=O)N2CCc3cc4ccnc(N5CCN6CCC[C@H]6C5)c4cc32)cnn1-c1ccc(C#N)cc1 | 3.16 | 1.26 | 2 |  |  |  |  |  |  |
| CN1CCN(c2nccc3cc4c(cc23)N(C(=O)c2ccc(C(F)(F)F)nc2)CC4)CC1 | 0.501 | 3.16 | 0.251 |  |  |  |  |  |  |
| CCc1c(C(=O)N2CCc3cc4ccnc(N5CCN6CCC[C@@H]6C5)c4cc32)cnn1-c1ccc(C#N)cc1 | 1 | 1.58 | 1 |  |  |  |  |  |  |
| CCc1c(C(=O)N2CCc3cc4ccnc(N5CCN(C)CC5)c4cc32)cnn1-c1ccc(C#N)cc1 | 0.631 | 1.26 | 1 | 0.5 | 0.33 | 50 | 0.47 | 28 |  |
| CN1CCN(c2nccc3cc4c(cc23)N(C(=O)c2ccc(Cl)cc2)CC4)CC1 | 0.501 | 0.794 | 0.316 | 1.3 | 0.69 |  | 0.75 | 29 |  |
| CCc1c(C(=O)N2CCc3cc4ccnc(N5C[C@@H](C)N[C@@H](C)C5)c4cc32)cnn1-c1ccc(C#N)cc1 | 7.94 | 31.6 | 7.94 |  |  |  |  |  |  |
| CCc1c(C(=O)N2CCc3cc4ccnc(N5CCN(C(C)C)CC5)c4cc32)cnn1-c1ccc(C#N)cc1 | 7.94 | 6.31 | 3.98 |  |  |  |  |  |  |
| CN1CCN(c2nccc3cc4c(cc23)N(C(=O)c2ccccc2C(F)(F)F)CC4)CC1 | 15.8 | 10 | 15.8 |  |  |  | 0.23 |  | inactive |
| CN1CCN(c2nccc3cc4c(cc23)N(C(=O)c2ccccc2Cl)CC4)CC1 | 2.51 | 5.01 | 1.26 |  | 0.42 |  | 0.42 |  |  |
| Cc1cc(C(=O)N2CCc3cc4ccnc(N5CCN(C)CC5)c4cc32)c(C(F)(F)F)o1 | 7.94 | 5.01 | 2 |  |  |  |  |  |  |
| CN1CCN(c2nccc3cc4c(cc23)N(C(=O)c2ccc(C#N)cc2)CC4)CC1 | 0.794 | 1 | 0.501 | 0.7 | 0.84 |  | 0.86 | 19 |  |
| CN1CCN(c2nccc3cc4c(cc23)N(C(=O)c2cnn3ccccc23)CC4)CC1 | 1.26 | 0.316 | 1 |  |  |  |  |  |  |
| CN1CCN(c2cc3c(cc2Cl)CCN3C(=O)Nc2ccc(-c3ccncc3)c3ccccc23)CC1 | 2 | 10 | 7.94 |  |  |  |  |  |  |
| CN1CCN(c2nccc3cc4c(cc23)N(C(=O)c2cnn(C)c2C(F)(F)F)CC4)CC1 | 10 | 6.31 | 5.01 | 0.1 |  |  |  | 48 |  |
| Cc1c(C(=O)N2CCc3cc4ccnc(N5CCN(C)CC5)c4cc32)cnn1-c1ccccc1 | 0.631 | 0.631 | 0.631 | 1.1 | 0.54 | 40 | 0.59 | 32 |  |
| Cc1nc(C)c(C(=O)N2CCc3cc4ccnc(N5CCN(C)CC5)c4cc32)o1 | 2.51 | 6.31 | 15.8 | 0.5 |  | 55 |  | 39 |  |
| CCc1c(C(=O)N2CCc3cc4ccnc(N5CCNCC5)c4cc32)cnn1-c1ccc(C#N)cc1 | 2.51 | 1.26 | 2.51 |  |  |  |  |  |  |
| CN1CCN(c2nccc3cc4c(cc23)N(C(=O)c2cccc3ncccc23)CC4)CC1 | 3.98 | 3.98 | 0.794 | 0.2 |  |  |  | 75 |  |
